Counter-ions that a name gives are not always drawn.

Experimental findings from patent publication US20130071931A1, “PROCESS FOR HEPATIC DIFFERENTIATION FROM INDUCED HEPATIC STEM CELLS, AND INDUCED HEPATIC PROGENITOR CELLS DIFFERENTIATED THEREBY” (NATIONAL CANCER CENTER, priority 2011, published 2013) are described below.

Assay [1] deals with human induced hepatic stem cells NGC1-1. Nature of the assay: Quantitative RT-PCR, differentiation with TGF-β signaling inhibitors (Example 11). The class given is cell-based. Particulars: cell samples Nos. 1141-1145: 0.5 μM inhibitor in ReproStem + 10 ng/mL aFGF, no feeder cells, Matrigel, 7 days after seeding; No. 1133 taken as 1. The procedure: The resultant cell samples are respectively referred to as “Nos. 1141-1145”. No. 1140 was cultured in the absence of any inhibitor. Nos. 1141-1145 were cultured in the presence of the following inhibitors, respectively. No. 1141: […] Cat. No. 2939) No. 1142: […] MERCK Calbiochem; Cat. […] MERCK Calbiochem; Cat. […] Cayman; Cat. No. 13031) No. 1145: […] Cayman; Cat. No. 13341). […] Seven days after the seeding, the cells were lysed in 1 mL/well of a QIAzol reagent to prepare the total RNA from the cell lysate using the miRNeasy Mini Kit (Qiagen). The total RNA was subjected to quantitative RT-PCR using the iScript Advanced cDNA synthesis kit, the SsoAdvanced SYBR Green Supremix ([…]), and the CFX96 Real-Time System C1000 Thermal Cycler, all manufactured by Bio-Rad.

Assay [2] concerns human induced hepatic stem cells AFB1-1. The assay is described as follows: Quantitative RT-PCR, differentiation with TGF-β signaling inhibitors (Example 12). In kind it is cell-based. Particulars: cell samples Nos. 1545-1549: 0.5 μM inhibitor in ReproStem (bFGF-free), no feeder cells, Matrigel, 13 days after seeding; for KRT7 expression ratio: No. 1543 taken as 1; for GAPDH expression Ct value: housekeeping gene. How it is done:
The resultant cell samples are respectively referred to as “Nos. 1545-1549”. No. 1544 was cultured in the absence of any inhibitor. Nos. 1545-1549 were cultured in the presence of the following inhibitors, respectively.
Thirteen days after the seeding, the cells were lysed in 1 mL/well of a QIAzol reagent to prepare the total RNA from the cell lysate using the miRNeasy Mini Kit (Qiagen). The total RNA was subjected to quantitative RT-PCR using the iScript Advanced cDNA synthesis kit, the SsoAdvanced SYBR Green Supremix ([…]), and the CFX96 Real-Time System C1000 Thermal Cycler, all manufactured by Bio-Rad. The quantified genes were ALB, AAT, TTR, AFP, cytokeratin 7 (KRT7), cytokeratin 19 (KRT19), and DLK1 (Delta-like 1 homolog).

Assay [3] shares this test system. The assay is described as follows: AFP in culture supernatant, hepatic differentiation on Matrigel (Examples 2-4). As to conditions: cell sample No. 391: aFGF 10 ng/mL/ReproStem (bFGF-free), no feeder cells, 13 days after seeding.
Assay [4] has the same test system. Nature of the assay: Quantitative RT-PCR of marker genes, hepatic differentiation on Matrigel (Examples 2-4). The class given is cell-based. Particulars: cell sample No. 391: aFGF 10 ng/mL/ReproStem (bFGF-free), no feeder cells, 13 days, No. 377 taken as 1.

As to `c1ccc(-c2n[nH]cc2-c2ccnc3ccccc23)nc1` [LY-364947, 4-[3-(2-pyridinyl)-1H-pyrazol-4-yl]-quinoline], in assay [1], the AAT expression ratio was 14.36, the AFP expression ratio was determined as 369.23, the ALB expression ratio was 114.78 and the TTR expression ratio came to 482.45.
In the same order, the values of `NC(=O)c1ccc(-c2nc(-c3ccc4c(c3)OCO4)c(-c3ccccn3)[nH]2)cc1` [SB431542, 4-[4-(1,3-benzodioxol-5-yl)-5-pyridin-2-yl-1H-imidazol-2-yl]benzamide] are 12.15, 394.40, 94.46 and 614.17.
`Cc1cccc(-c2[nH]c(C(C)(C)C)nc2-c2ccc3c(c2)OCO3)n1.Cl` [SB-505124, 2-(5-benzo[1,3]dioxol-5-yl-2-tert-butyl-3H-imidazol-4-yl)-6-methylpyridine hydrochloride hydrate]: in assay [2], the “AAT expression Ct value” was determined as 23.56, the “AFP expression Ct value” was found to be 18.61, the “ALB expression Ct value” turned out to be 23.2 and the “DLK1 expression Ct value” amounted to 18.77. In assay [2], the “KRT7 expression Ct value” is given as 19.8, the “KRT19 expression Ct value” was found to be 20.33, the “TTR expression Ct value” was determined as 17.24 and the KRT7 expression ratio was 2768. In addition, the “GAPDH expression Ct value” in assay [2] is recorded as 13.25.
For the compound `Cc1cccc(-c2n[nH]cc2-c2ccc3ncccc3n2)n1` [compound 616451, 3-(pyridin-2-yl)-4-(4-quinonyl)-1H-pyrazole], in assay [1], the AAT expression ratio was 13.45, the AFP expression ratio is listed as 747.65, the ALB expression ratio amounted to 163.71 and the TTR expression ratio is recorded as 966.14.
Taken in the same sequence, the figures for `Cc1cccc(-c2n[nH]cc2-c2ccc3ncccc3n2)n1` [compound 616452, 2-(3-(6-methylpyridin-2-yl)-1H-pyrazol-4-yl)-1,5-naphthyridine] were 22.18, 720.03, 296.67 and 1,262.14.
On to `Cc1cccc(-c2nc(C(C)(C)C)[nH]c2-c2ccc3c(c2)OCO3)n1` [compound 616453, HCl], for which, in assay [2], the “AAT expression Ct value” was found to be 24.09, the “AFP expression Ct value” amounted to 20.24, the “ALB expression Ct value” was 25.55 and the “DLK1 expression Ct value” was 18.74. In assay [2], the “KRT7 expression Ct value” is recorded as 19.45, the “KRT19 expression Ct value” amounted to 20.29, the “TTR expression Ct value” is given as 18.13 and the KRT7 expression ratio is reported as 4761. In addition, the “GAPDH expression Ct value” in assay [2] came out at 13.76.
`Fc1ccc(Cl)cc1-c1nc(Nc2ccncc2)c2nccnc2n1` [compound 616456]: in assay [2], the “AAT expression Ct value” is listed as 23.54, the “AFP expression Ct value” was 17.48, the “ALB expression Ct value” stood at 21.35 and the “DLK1 expression Ct value” is on record as 19.1. Besides, in assay [2], the “KRT7 expression Ct value” is reported as 20.05, the “KRT19 expression Ct value” came to 20.45, the “TTR expression Ct value” amounted to 17.4 and the KRT7 expression ratio worked out at 3186. For the same compound, the “GAPDH expression Ct value” in assay [2] is given as 13.72.
Turning to `Cc1cccc(-c2[nH]c(C(C)(C)C)nc2-c2ccc3nccnc3c2)n1` [compound 616459, 6-(2-tert-butyl-5-(6-methyl-pyridin-2-yl)-1H-imidazol-4-yl)-quinoxaline], in assay [2], the “AAT expression Ct value” came out at 23.54, the “AFP expression Ct value” was 19.25, the “ALB expression Ct value” stood at 24.67 and the “DLK1 expression Ct value” amounted to 18.66. In addition, in assay [2], the “KRT7 expression Ct value” is given as 19.89, the “KRT19 expression Ct value” turned out to be 20.36, the “TTR expression Ct value” was found to be 17.24 and the KRT7 expression ratio was found to be 4905. Moreover, the “GAPDH expression Ct value” in assay [2] was determined as 14.24.
Turning to “aFGF: aFGF, 10 ng/mL supplement of bFGF-free ReproStem medium (cell sample No. 391)”, in assay [3], the “α-fetoprotein (AFP) in culture supernatant” value is recorded as 3,300 ng/mL. Also, in assay [4], the AAT expression level was determined as 220, the AFP expression level is given as 3,420, the ALB expression level was 3,172 and the DLK1 expression level was 786. Also, the TTR expression level in assay [4] is 3,910.
